Experimental findings from patent US20250270198A1, “PYRIDONE COMPOUNDS AS TRPA1 INHIBITORS” (D. E. Shaw Research, LLC, priority 2022, published 2025) are described below.

The assay concerns the target human TRPA1 channel (Homo sapiens (Human), UniProt O75762). Nature of the assay: TRPA1 inhibitor activity, automated patch clamp (SyncroPatch). It is filed as cell-based. To be noted: CHO cells inducibly expressing human TRPA1, currents elicited by carvacrol (300 μM), holding potential −60 mV. The protocol:
This assay was used to evaluate the disclosed compounds' inhibition activities against the human TRPA1 channel.
CHO cells inducibly expressing human TRPA1 were grown in DMEM containing 10% heat-inactivated FBS, 1 mM Sodium Pyruvate, 2 mM L-Glutamine, Zeocin (100 μg/ml) and Blasticidin (10 μg/ml). Expression was induced by addition of Doxycycline (1 μg/ml) 24 hours before experiments. Cells used for electrophysiology were plated in plastic culture flasks and grown at 37° C. in a 5% CO2-humidified tissue culture incubator per ChanPharm SOP. Stocks were maintained in cryogenic storage.
The cells were bathed in an extracellular solution containing 80 mM NaCl, 60 mM NMDG, 4 mM KCl, 2 mM CaCl2), 6 mM MgCl2, 5 mM Glucose. 10 mM HEPES, 3 mM HEDTA; pH adjusted to 7.4 with NaOH; 305-310 mOsm. All compounds were dissolved in DMSO at 30 mM. The internal solution contained 10 mM CsCl, 110 mM CsF, 10 mM NaCl, 10 mM EGTA, 10 mM HEPES, 4 mM MgATP, 0.25 mM NaGTP, 4 mM BAPTA; pH adjusted to 7.2 with CsOH; 285-290 mOsm. Compound stock solutions were freshly diluted with external solution to concentrations of 3 nM, 10 nM 30 nM, 100 nM, 300 nM, 1 μM, 3 μM, 10 μM, and 30 μM. The highest content of DMSO (0.1%) was present at 30 μM.
All experiments were performed at room temperature. Each cell acted as its own control. In preparation for a current recording session, intracellular solution (see above) was loaded into the intracellular compartments of the automated patch clamp platform SyncroPatch (Nanion) chip and the cell suspension was pipetted into the extracellular compartments. After establishment of a whole-cell configuration, membrane current recordings and compound application were enabled by means of the SyncroPatch. TRPA1 currents were elicited by application of carvacrol (300 μM) at a constant holding potential of −60 mV (see Table A below).
To determine IC50 values, AUC and peak values, obtained in the presence of a given compound concentration, were normalized to control values in absence of compound. Using DataControl384 (Nanion's proprietary software), IC50 values were derived by fitting the normalized data to the Hill equation.

Chain of human TRPA1 channel (O75762 whole entry): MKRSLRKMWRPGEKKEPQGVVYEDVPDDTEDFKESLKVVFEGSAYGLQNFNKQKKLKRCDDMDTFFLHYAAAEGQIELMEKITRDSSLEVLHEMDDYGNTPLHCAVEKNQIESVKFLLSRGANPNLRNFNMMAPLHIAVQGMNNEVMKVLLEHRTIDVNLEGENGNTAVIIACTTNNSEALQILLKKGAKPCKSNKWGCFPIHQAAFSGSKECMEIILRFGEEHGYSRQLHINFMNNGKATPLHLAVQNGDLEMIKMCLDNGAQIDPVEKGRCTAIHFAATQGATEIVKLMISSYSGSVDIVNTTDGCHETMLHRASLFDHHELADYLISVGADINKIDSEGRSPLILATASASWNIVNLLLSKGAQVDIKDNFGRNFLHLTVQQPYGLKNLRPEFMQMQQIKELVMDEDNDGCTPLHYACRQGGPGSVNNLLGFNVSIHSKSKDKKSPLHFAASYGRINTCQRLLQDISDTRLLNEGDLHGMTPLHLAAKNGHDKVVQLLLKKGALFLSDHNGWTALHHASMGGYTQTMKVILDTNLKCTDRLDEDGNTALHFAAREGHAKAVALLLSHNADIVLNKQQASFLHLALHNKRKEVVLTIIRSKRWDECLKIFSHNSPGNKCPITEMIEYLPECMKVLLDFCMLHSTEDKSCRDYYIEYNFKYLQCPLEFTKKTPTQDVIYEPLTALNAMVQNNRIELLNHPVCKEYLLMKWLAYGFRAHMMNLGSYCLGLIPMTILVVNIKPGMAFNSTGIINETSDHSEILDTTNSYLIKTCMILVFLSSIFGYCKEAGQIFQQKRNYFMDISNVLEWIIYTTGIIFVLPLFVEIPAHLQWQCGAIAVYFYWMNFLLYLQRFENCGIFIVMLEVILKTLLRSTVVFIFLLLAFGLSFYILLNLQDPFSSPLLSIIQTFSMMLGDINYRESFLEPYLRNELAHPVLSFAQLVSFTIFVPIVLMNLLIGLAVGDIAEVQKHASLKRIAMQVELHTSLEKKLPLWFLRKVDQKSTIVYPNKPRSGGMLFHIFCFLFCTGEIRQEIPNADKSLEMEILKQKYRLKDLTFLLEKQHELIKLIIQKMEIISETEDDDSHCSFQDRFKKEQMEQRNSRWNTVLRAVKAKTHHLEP

As usually defined, the IC50 is the concentration that gives 50% inhibition. A lower IC50 goes with inhibition by little substance. `Cc1ccc(Cl)c(=O)n1Cc1nc(C[C@H](O)c2ccc(Cl)cc2)no1` [Compound 34, (S)-3-chloro-1-((3-(2-(4-chlorophenyl)-2-hydroxyethyl)-1,2,4-oxadiazol-5-yl)methyl)-6-methylpyridin-2(1H)-one] showed an IC50 (Table 4) of less than 1000 nM.
`Nc1ncn(Cc2nc(C[C@H](O)c3ccc(Cl)cc3)no2)c(=O)c1Cl` [Compound 72, (S)-6-amino-5-chloro-3-((3-(2-(4-chlorophenyl)-2-hydroxyethyl)-1,2,4-oxadiazol-5-yl)methyl)pyrimidin-4(3H)-one] came in with an IC50 (Table 5) of less than 300 nM.
Under “Table 4”, `Cc1nccn(Cc2nc(CCc3ccc(Cl)cc3)no2)c1=O` [Compound 25, 1-((3-(4-chlorophenethyl)-1,2,4-oxadiazol-5-yl)methyl)-3-methylpyrazin-2(1H)-one] yielded an IC50 of less than 3000 nM.
Turning to `Cc1ncn(Cc2nc(C[C@H](O)c3ccc(Cl)cc3)no2)c(=O)c1C` [Compound 68, (S)-3-((3-(2-(4-chlorophenyl)-2-hydroxyethyl)-1,2,4-oxadiazol-5-yl)methyl)-5,6-dimethylpyrimidin-4(3H)-one], the IC50 (Table 5) was less than 300 nM.
For `Cc1cc(CC#N)cn(Cc2nc(CCc3ccc(Cl)cc3)no2)c1=O` [Compound 19, 2-(1-((3-(4-chlorophenethyl)-1,2,4-oxadiazol-5-yl)methyl)-5-methyl-6-oxo-1,6-dihydropyridin-3-yl)acetonitrile], the IC50 (Table 4) is less than 1000 nM.
`Cc1nc(C)c(=O)n(Cc2nc(CCc3ccc(Cl)cc3)no2)c1C` [Compound 23, 1-((3-(4-chlorophenethyl)-1,2,4-oxadiazol-5-yl)methyl)-3,5,6-trimethylpyrazin-2(1H)-one]: the IC50 (Table 4) was less than 1000 nM.
Regarding `Nc1c(Cl)c(F)n(Cc2nc(C[C@H](O)c3ccc(Cl)cc3)no2)c(=O)c1Cl` [Compound 28, (S)-4-amino-3,5-dichloro-1-((3-(2-(4-chlorophenyl)-2-hydroxyethyl)-1,2,4-oxadiazol-5-yl)methyl)-6-fluoropyridin-2(1H)-one], the IC50 (Table 4) was less than 1000 nM.
Still for that read-out and setting: then `Cc1c(-c2cn[nH]c2)ccn(Cc2nc(CCc3ccc(Cl)cc3)no2)c1=O` [Compound 15, 1-((3-(4-chlorophenethyl)-1,2,4-oxadiazol-5-yl)methyl)-3-methyl-4-(1H-pyrazol-4-yl)pyridin-2(1H)-one], with less than 3000 nM; and `CNC(=O)c1cc(C)c(=O)n(Cc2nc(CCc3ccc(Cl)cc3)no2)c1` [Compound 9, 1-((3-(4-chlorophenethyl)-1,2,4-oxadiazol-5-yl)methyl)-N,5-dimethyl-6-oxo-1,6-dihydropyridine-3-carboxamide], with less than 1000 nM; and `Cc1cc(CO)cn(Cc2nc(CCc3ccc(Cl)cc3)no2)c1=O` [Compound 16, 1-((3-(4-chlorophenethyl)-1,2,4-oxadiazol-5-yl)methyl)-5-(hydroxymethyl)-3-methylpyridin-2(1H)-one], with less than 3000 nM.
The same measure, in the same setting: then `O=c1c(C(F)(F)F)cccn1Cc1nc(CCc2ccc(Cl)cc2)no1` [Compound 7, 1-((3-(4-chlorophenethyl)-1,2,4-oxadiazol-5-yl)methyl)-3-(trifluoromethyl)pyridin-2(1H)-one], with less than 10000 nM; and `Cc1cc(C#N)cn(Cc2nc(CCc3ccc(Cl)cc3)no2)c1=O` [Compound 2, 1-((3-(4-chlorophenethyl)-1,2,4-oxadiazol-5-yl)methyl)-5-methyl-6-oxo-1,6-dihydropyridine-3-carbonitrile], with less than 1000 nM.
On the same count and under the same terms, then `Cc1c(Br)ccn(Cc2nc(CCc3ccc(Cl)cc3)no2)c1=O` [Compound 12, 4-bromo-1-((3-(4-chlorophenethyl)-1,2,4-oxadiazol-5-yl)methyl)-3-methylpyridin-2(1H)-one], with less than 3000 nM.
On to `NC(=O)c1ncn(Cc2nc(C[C@H](O)c3ccc(Cl)cc3)no2)c(=O)c1Cl` [Compound 62, (S)-5-chloro-1-((3-(2-(4-chlorophenyl)-2-hydroxyethyl)-1,2,4-oxadiazol-5-yl)methyl)-6-oxo-1,6-dihydropyrimidine-4-carboxamide], for which the IC50 (Table 5) was less than 1000 nM.
`COC(=O)c1cc(C)c(=O)n(Cc2nc(CCc3ccc(Cl)cc3)no2)c1` [Compound 10, methyl 1-((3-(4-chlorophenethyl)-1,2,4-oxadiazol-5-yl)methyl)-5-methyl-6-oxo-1,6-dihydropyridine-3-carboxylate]: the IC50 (Table 4) is less than 3000 nM.
Under “Table 5”, `O=c1c(Cl)c(Cl)ncn1Cc1nc(C[C@H](O)c2ccc(Cl)cc2)no1` [Compound 64, (S)-5,6-dichloro-3-((3-(2-(4-chlorophenyl)-2-hydroxyethyl)-1,2,4-oxadiazol-5-yl)methyl)pyrimidin-4(3H)-one] gave an IC50 of less than 100 nM.
Molecule `O=c1c(Cl)nc(Br)cn1Cc1nc(C[C@H](O)c2ccc(Cl)cc2)no1` [Compound 21, (S)-5-bromo-3-chloro-1-((3-(2-(4-chlorophenyl)-2-hydroxyethyl)-1,2,4-oxadiazol-5-yl)methyl)pyrazin-2(1H)-one] came in with an IC50 (Table 4) of less than 300 nM.
For the molecule `Cc1cccn(Cc2nc(CCc3ccc(Cl)cc3)no2)c1=O` [Compound 1, 1-((3-(4-chlorophenethyl)-1,2,4-oxadiazol-5-yl)methyl)-3-methylpyridin-2(1H)-one], the IC50 (Table 4) was less than 10000 nM.
Same read-out and setting: under `N#Cc1cc(Br)c(=O)n(Cc2nc(CCc3ccc(Cl)cc3)no2)c1` [Compound 3, 5-bromo-1-((3-(4-chlorophenethyl)-1,2,4-oxadiazol-5-yl)methyl)-6-oxo-1,6-dihydropyridine-3-carbonitrile] stands less than 1000 nM.
In the case of `Cc1c(N)ncn(Cc2nc(C[C@H](O)c3ccc(Cl)cc3)no2)c1=O` [Compound 33, (S)-6-amino-3-((3-(2-(4-chlorophenyl)-2-hydroxyethyl)-1,2,4-oxadiazol-5-yl)methyl)-5-methylpyrimidin-4(3H)-one], the concentration for half-maximal inhibition (IC50) (Table 4) is less than 1000 nM.
As for `O=c1c(Cl)c(-c2cn[nH]c2)ccn1Cc1nc(C[C@H](O)c2ccc(Cl)cc2)no1` [Compound 74, (S)-3-chloro-1-((3-(2-(4-chlorophenyl)-2-hydroxyethyl)-1,2,4-oxadiazol-5-yl)methyl)-4-(1H-pyrazol-4-yl)pyridin-2(1H)-one], the IC50 (Table 5) is less than 1000 nM.
In turn, `Cc1cn(Cc2nc(C[C@H](O)c3ccc(Cl)cc3)no2)c(=O)c(C)n1` [Compound 32, (S)-1-((3-(2-(4-chlorophenyl)-2-hydroxyethyl)-1,2,4-oxadiazol-5-yl)methyl)-3,5-dimethylpyrazin-2(1H)-one] yielded an IC50 (Table 4) of less than 1000 nM.
`Cc1nc(Cl)cn(Cc2nc(CCc3ccc(Cl)cc3)no2)c1=O` [Compound 24, 5-chloro-1-((3-(4-chlorophenethyl)-1,2,4-oxadiazol-5-yl)methyl)-3-methylpyrazin-2(1H)-one] had an IC50 (Table 4) of less than 1000 nM.
`Cc1cc(CC(N)=O)cn(Cc2nc(CCc3ccc(Cl)cc3)no2)c1=O` [Compound 20, 2-(1-((3-(4-chlorophenethyl)-1,2,4-oxadiazol-5-yl)methyl)-5-methyl-6-oxo-1,6-dihydropyridin-3-yl)acetamide] gave an IC50 (Table 4) of less than 10000 nM.
As to `C=Cc1ccn(Cc2nc(CCc3ccc(Cl)cc3)no2)c(=O)c1C` [Compound 13, 1-((3-(4-chlorophenethyl)-1,2,4-oxadiazol-5-yl)methyl)-3-methyl-4-vinylpyridin-2(1H)-one], the IC50 (Table 4) was less than 3000 nM.
Same read-out and setting: under `Cc1ncc(C)n(Cc2nc(C[C@H](O)c3ccc(Cl)cc3)no2)c1=O` [Compound 31, (S)-1-((3-(2-(4-chlorophenyl)-2-hydroxyethyl)-1,2,4-oxadiazol-5-yl)methyl)-3,6-dimethylpyrazin-2(1H)-one] stands less than 1000 nM.
For the molecule `Cc1ncc(Cl)c(=O)n1Cc1nc(C[C@H](O)c2ccc(Cl)cc2)no1` [Compound 69, (S)-5-chloro-3-((3-(2-(4-chlorophenyl)-2-hydroxyethyl)-1,2,4-oxadiazol-5-yl)methyl)-2-methylpyrimidin-4(3H)-one], the IC50 (Table 5) is less than 1000 nM.
For `Cc1cc(Cl)cn(Cc2nc(CCc3ccc(Cl)cc3)no2)c1=O` [Compound 5, 5-chloro-1-((3-(4-chlorophenethyl)-1,2,4-oxadiazol-5-yl)methyl)-3-methylpyridin-2(1H)-one], the IC50 (Table 4) is less than 3000 nM.
On to `Cc1c(CO)ccn(Cc2nc(CCc3ccc(Cl)cc3)no2)c1=O` [Compound 11, 1-((3-(4-chlorophenethyl)-1,2,4-oxadiazol-5-yl)methyl)-4-(hydroxymethyl)-3-methylpyridin-2(1H)-one], for which, where the note is “Table 4”, the IC50 was less than 3000 nM.
